Data published in US20110065663A1, “ANTI-CANCER COMBINATION THERAPY” (Katholieke Universiteit Leuven, K.U. Leuven R&D, priority 2008, published 2011).
Read-outs that look alike come from different tables or passages of the source.

Assays:
MCF-7/HYOR cells [1] = experiment: Tumor cell proliferation assay, M. hyorhinis-infected MCF-7 cells; format: cell-based, human; details: for Ratio (1)/(2) MCF-7/HYOR: IC50 in the absence of TPi to IC50 in the presence of TPi
Experimental: Mycoplasma hyorhinis (ATCC 17981) was obtained from the American Type Culture Collection (ATCC, Manassas, Va.). The freeze-dried bacteria were reconstituted by adding 1 ml of DMEM. […] The co-culture of MCF-7 cells and M. hyorhinis was maintained under the same conditions as the uninfected MCF-7 cells. […] The cells were incubated for another 4 days, trypsinized and counted by a Coulter counter (Analis, Suarlée, Belgium).

E. coli TP = molecular target: T1, E. coli TP (Escherichia coli, UniProt P07650); experiment: Enzyme activity assay with recombinant E. coli TP (positive control); format: biochemical; details: 0.025 U TP, 200 μM substrate
T1 construct: purchased Sigma
T1 sequence (P07650 whole entry): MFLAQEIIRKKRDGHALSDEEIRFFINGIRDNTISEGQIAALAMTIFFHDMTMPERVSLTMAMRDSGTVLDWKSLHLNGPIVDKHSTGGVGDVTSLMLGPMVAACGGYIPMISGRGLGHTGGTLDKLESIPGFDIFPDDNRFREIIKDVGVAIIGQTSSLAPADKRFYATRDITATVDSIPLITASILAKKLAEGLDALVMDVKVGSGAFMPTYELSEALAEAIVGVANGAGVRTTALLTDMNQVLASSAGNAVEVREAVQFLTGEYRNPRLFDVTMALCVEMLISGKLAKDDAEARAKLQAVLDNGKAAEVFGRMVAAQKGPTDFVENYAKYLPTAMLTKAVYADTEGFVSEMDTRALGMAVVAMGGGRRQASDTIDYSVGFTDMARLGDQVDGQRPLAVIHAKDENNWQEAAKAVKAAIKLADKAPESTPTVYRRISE
Experimental: The TP activity of M. hyorhinis and the conversion of dThd, FdUrd, 5′DFUR and TFT to thymine, 5FU, 5FU or TF-thymine respectively were measured by high-pressure liquid chromatography (HPLC) analysis. MCF-7 and MCF-7/HYOR cells were seeded at a density of 20,000 cells/cm^2 in DMEM with 10% FBS. Four days later, the medium was collected and cleared by centrifugation at 1,400 rpm. For some experiments, the medium of MCF-7/HYOR cells was filtered using a 0.1 μm micro filter (Acrodisc syringe filter, PALL Corporation, East Hills, N.Y.) to remove the mycoplasmas from the medium. 600 μl of the medium was incubated with 200 μM of substrate (dThd, 5′DFUR, TFT or FdUrd) at 37° C. in the presence or absence of 10 μM TPi. At different time points (i.e. 0, 15, 30, 60, 120 minutes and 16 hours), 100 μl aliquots were withdrawn, transferred to Eppendorf tubes and heated at 95° C. for 3 min. Next, the samples were rapidly cooled on ice, exposed for 20 min to 200 μl ice-cold methanol and cleared by centrifugation at 15,000 rpm for 15 minutes. As a positive control, an enzyme activity assay with E. coli TP (Sigma) was performed. For this reaction, 0.025 U of TP were incubated with 200 μM of substrate in TP-buffer (10 mM Tris-HCl, pH 7.6, 1 mM EDTA, 2 mM potassium phosphate and 150 mM NaCl) in a total volume of 600 μl. Aliquots of 100 μl were withdrawn from the reaction mixture at several time points and treated as described above. The nucleosides were separated from their nucleobases on a reversed-phase RP-8 column (Merck, Darmstadt, Germany) and quantified by HPLC analysis (Aliance 2690, Waters, Milford, Mass.). The separation was performed by a linear gradient from 100% buffer B (50 mM NaH2PO4 and 5 mM heptane sulfonic acid, pH 3.2), to 20% buffer B and 80% acetonitrile. Retention times of thymine and thymidine were respectively 5.1 and 10.8 minutes. UV-based detection of all nucleosides was performed at 267 nm.

MCF-7/HYOR cell cultures = experiment: Nucleoside metabolism experiments, distribution of drug-derived radiolabel in MCF-7/HYOR cell cultures; format: cell-based, human; details: MCF-7/HYOR; for % of drug-derived radiolabel, In medium, Base / % of drug-derived radiolabel, In medium, Nucleoside / % of drug-derived radiolabel, In the cytosol of the cells, 5′-diphosphate / % of drug-derived radiolabel, In the cytosol of the cells, 5′-monophosphate / % of drug-derived radiolabel, In the cytosol of the cells, 5′-triphosphate / % of drug-derived radiolabel, In the cytosol of the cells, Nucleoside/nucleobase / % of drug-derived radiolabel, Incorporatio into DNA/RNA: 1 μCi, 16 h; for Increase of 5′-monophosphate levels in the presence of TPi: with versus without TPi
MCF-7/HYOR cells [2] = experiment: Nucleotide incorporation assay, MCF-7/HYOR compared with MCF-7 cells; format: cell-based, human; details: 1 μCi radiolabeled compound; FIG. 4
Experimental: MCF-7 and MCF-7/HYOR cells were seeded at 10,000 cells/cm. After 48 hours, cells were treated with 1 μCi of ^3H-labeled nucleoside with or without 10 μM TPi. 16 h later, the medium was removed and the cells were washed twice with PBS. Next, the cells were trypsinized, transferred to Eppendorf tubes and centrifuged for 10 minutes at 1,400 rpm. The pellet was resuspended in 1 ml absolute ice-cold methanol and kept on ice for 20 minutes. After centrifugation for 20 minutes at 13,000 rpm the pellet was washed twice with methanol, resuspended in methanol and transferred to scintillation vials containing 9 ml of Ready safe liquid scintillation reagent (‘Hisafe 3’, Perkin Elmer, Waltham, Mass.). The radioactivity was measured by a Liquid scintillation analyzer (2300 TR, Packard, Canberra, Australia).

MCF-7 cells = experiment: Tumor cell proliferation assay, uninfected MCF-7 cells; format: cell-based, human; details: for IC50: uninfected MCF-7; for Ratio (1)/(2) MCF-7: IC50 in the absence of TPi to IC50 in the presence of TPi

Row | Structure (SMILES) | Ratio (1)/(2) MCF-7/HYOR (MCF-7/HYOR cells [1]) | Percent conversion of nucleoside to the free pyrimidine base, recombinant E. coli TP (E. coli TP; 2 hours) | Percent conversion of nucleoside to the free pyrimidine base, recombinant E. coli TP (E. coli TP; 16 hours) | % of drug-derived radiolabel, In medium, Base (MCF-7/HYOR cell cultures) | % of drug-derived radiolabel, In medium, Nucleoside (MCF-7/HYOR cell cultures) | % of drug-derived radiolabel, In the cytosol of the cells, 5′-diphosphate (MCF-7/HYOR cell cultures) | % of drug-derived radiolabel, In the cytosol of the cells, 5′-monophosphate (MCF-7/HYOR cell cultures) | % of drug-derived radiolabel, In the cytosol of the cells, 5′-triphosphate (MCF-7/HYOR cell cultures) | % of drug-derived radiolabel, In the cytosol of the cells, Nucleoside/nucleobase (MCF-7/HYOR cell cultures) | % of drug-derived radiolabel, Incorporatio into DNA/RNA (MCF-7/HYOR cell cultures) | Share incorporated into the nucleic acids in the presence of TPi (MCF-7/HYOR cell cultures) | Increase of 5′-monophosphate levels in the presence of TPi (MCF-7/HYOR cell cultures) | Ratio (1)/(2) MCF-7 (MCF-7 cells) | other results
1 | O=c1[nH]c(=O)n([C@H]2C[C@H](O)[C@@H](CO)O2)cc1F [FdUrd, 5-fluoro-2′-deoxyuridine] | 140 | 57% | 63% | 49.5% | 33.2% | 0.9% | 3.5% | 0.3% | 11.6% | 1.0% | almost no | 18 fold | 1.0 | IC50 (MCF-7/HYOR cells [1]; Homo sapiens, MCF7, read-out: IC50 MCF-7/HYOR +TPi (10 μM)): 0.003 ± 0.001 µM; IC50 (MCF-7/HYOR cells [1]; Homo sapiens, MCF7, read-out: IC50 MCF-7/HYOR As such): 0.42 ± 0.18 µM; IC50 (MCF-7/HYOR cells [1]; Homo sapiens, MCF7, plasmocin 25 μg/ml, 1 day pretreatment, read-out: IC50 MCF-7/HYOR +plasmocin (25 μg/ml) 1 day prior to addition of test compounds): 0.018 ± 0.0022 µM; IC50 (MCF-7/HYOR cells [1]; Homo sapiens, MCF7, plasmocin 25 μg/ml, 3 days pretreatment, read-out: IC50 MCF-7/HYOR +plasmocin (25 μg/ml) 3 days prior to addition of test compounds): 0.003 ± 0.001 µM; Incorporation into nucleic acids, infected versus uninfected MCF-7 cells (in words) (MCF-7/HYOR cells [2]): did not affect; IC50 (MCF-7 cells; Homo sapiens, MCF7, 96 h, no TPi, 4 days, read-out: IC50 MCF-7 As such): 0.003 ± 0.002 µM; IC50 (MCF-7 cells; Homo sapiens, MCF7, with 10 μM TPi, read-out: IC50 MCF-7 +TPi (10 μM)): 0.003 ± 0.002 µM
2 | O=c1[nH]c(=O)n([C@H]2C[C@H](O)[C@@H](CO)O2)cc1C(F)(F)F [TFT, 5-trifluorothymidine] | 33 | 48% | 85% | 56.7% | 23.3% | 0.6% | 6.1% | 0.6% | 11.0% | 1.8% | 66% | 2.7 fold | 1.8 | IC50 (MCF-7/HYOR cells [1]; M. hyorhinis-infected MCF-7, no TPi, no plasmocin, read-out: IC50 MCF-7/HYOR As such): 6 ± 3.19 µM; IC50 (MCF-7/HYOR cells [1]; M. hyorhinis-infected MCF-7, with 10 μM TPi, read-out: IC50 MCF-7/HYOR +TPi (10 μM)): 0.18 ± 0.07 µM; IC50 (MCF-7/HYOR cells [1]; plasmocin 25 μg/ml, 1 day pretreatment, read-out: IC50 MCF-7/HYOR +plasmocin (25 μg/ml) 1 day prior to addition of test compounds): 0.45 ± 0.09 µM; IC50 (MCF-7/HYOR cells [1]; plasmocin 25 μg/ml, 3 days pretreatment, read-out: IC50 MCF-7/HYOR +plasmocin (25 μg/ml) 3 days prior to addition of test compounds): 0.19 ± 0.06 µM; Reduction of incorporation into nucleic acids in infected MCF-7/HYOR cells in comparison with uninfected MCF-7 cells (MCF-7/HYOR cells [2]): 40 fold; IC50 (MCF-7 cells; no TPi, 4 days, read-out: IC50 MCF-7 As such): 0.39 ± 0.12 µM; IC50 (MCF-7 cells; with 10 μM TPi, read-out: IC50 MCF-7 +TPi (10 μM)): 0.21 ± 0.11 µM
